From patent US20220054485A1, “METHODS OF TREATING RIGHT VENTRICULAR FUNCTION IN PULMONARY HYPERTENSION” (REGENTS OF THE UNIVERSITY OF MINNESOTA, priority 2020, published 2022)
Entries after “also recorded” stand apart in the source; their conditions may differ. Read-outs that look alike come from different tables or passages of the source.

Key:
MCT rats = settings: cited from earlier work
H9c2 cardiomyocytes = assay: Seahorse mitochondrial respiration in H9c2 cardiomyocytes; format: cell-based, rat; settings: 20 μM paclitaxel overnight
Protocol: Cell culture and mitochondrial respiration measurements: H9c2 (ATCC CRL-1446) rat cardiomyocytes were maintained in Dulbecco's Modified Eagle's Medium (DMEM) (Thermo Scientific) supplemented with 10% fetal bovine serum (FBS) (Foundation, Gemini Bio-Products, West Sacramento, Calif.), 100 U/ml penicillin, and 100 μg/ml streptomycin (Invitrogen, Carlsbad, Calif.) at 37° C. with 5% CO2. Cells were passaged with Accutase (BioLegend, San Diego, Calif.). Differentiation was induced by changing to differentiation medium which had 2% horse serum (Equitech-Bio, Kerrville, Tex.), in place of FBS. Ten thousand cells were plated per Agilent Seahorse XFp dish pretreated with 0.1% gelatin (Sigma-Aldrich, St. Louis, Mo.). Five days after initial plating, cells were treated with differentiation media supplemented with 20 μM paclitaxel in DMSO (Sigma-Aldrich) overnight. The following day and one hour before the assay, cell media was changed to Seahorse DMEM assay media and supplemented with 5 mM glucose, 4 mM glutamine, and 1 mM pyruvate (Agilent, Santa Clara, Calif.). Oxygen consumption rate (OCR) was measured with an Agilent Seahorse XFp Extracellular Flux analyzer using the Agilent XFp Cell Mito Stress Test Kit with oligomycin A (final concentration after injection 1.5 μM), carbonyl cyanide 4-(trifluoromethoxy)phenylhydrazone (FCCP at 2 μM), and […] rotenone/actimycin. After the assay, cells were lysed in 50 μl of 1× Laemmli sample buffer supplemented with HALT protease and phosphatase inhibitor cocktail (Thermo Fisher). Cell lysates were electrophoresed on SDS-PAGE gels and stained with CBB per above to estimate total protein per sample. Raw Seahorse measurements were normalized to total protein and analyzed using Agilent Wave software.

adult cardiomyocytes = assay: IL6 incubation of isolated adult cardiomyocytes (microtubules, JPH2, t-tubules); format: cell-based; settings: IL6 10 ng/mL
Protocol: To examine the direct effects of IL6 on the MT-JPH2 pathway, adult cardiomyocytes were incubated with IL6 (10 ng/mL) and then it was quantified how MT, JPH2, and t-tubules were affected. IL6 increased MT density as determined by quantitative immunofluorescence (16.0±0.9 vs 20.4±0.7 fluorescence intensity/μm^2, p<0.001) (FIGS. 4A and 4B). The altered MT structure disrupted JPH2 localization marked by loss of t-tubule enrichment (TT score: 65.6±2.5 vs 59.6±1.6, p=0.04) (FIGS. 4C and 4D). Finally, IL6 caused t-tubule remodeling with loss of t-tubule regularity (TT score: 59.9±1.9 vs 51.9±1.5, p=0.003) (FIGS. 4E and 4F).
Determination of how IL6 alters the microtubule-JPH2-t-tubule pathway in isolated cardiomyocytes: Right ventricular cardiomyocytes are isolated using the Langendorf retrograde perfusion protocol. Cardiomyocytes are incubated for 24, 48, and 72 hours with either phosphate buffered saline (PBS), IL6 (10 ng/mL), IL6 (10 ng/mL) plus the STAT3 inhibitor Stattic (2 μM), or IL6 (10 ng/mL) plus colchicine (10 μM). Then Western blot analysis and confocal microscopy is used to examine microtubule density, JPH2 protein levels and localization, and t-tubule morphology. JPH2 localization patterns and t-tubule remodeling are quantified using the TTPower plug-in in FIJI.

IL-6 receptor = target: T1, IL-6 receptor (Homo sapiens, UniProt P08887); settings: PAH patients, vs control group; cited from earlier work
T1 construct: host or cells: PAH patients (clinical trial run by others)
T1 sequence (P08887 20-468): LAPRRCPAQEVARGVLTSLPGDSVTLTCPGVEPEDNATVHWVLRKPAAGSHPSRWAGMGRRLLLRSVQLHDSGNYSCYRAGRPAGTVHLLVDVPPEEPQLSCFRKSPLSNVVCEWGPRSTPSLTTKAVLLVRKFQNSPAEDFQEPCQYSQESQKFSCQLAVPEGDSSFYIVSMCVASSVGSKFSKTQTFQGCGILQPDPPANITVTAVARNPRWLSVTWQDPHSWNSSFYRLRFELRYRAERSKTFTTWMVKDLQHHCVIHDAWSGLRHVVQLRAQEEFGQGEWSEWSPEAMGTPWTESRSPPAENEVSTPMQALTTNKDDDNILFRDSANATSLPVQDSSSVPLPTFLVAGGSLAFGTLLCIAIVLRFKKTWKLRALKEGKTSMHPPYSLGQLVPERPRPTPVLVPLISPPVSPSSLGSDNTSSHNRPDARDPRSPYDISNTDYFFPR

[1] = therapy started one week after MCT

C[C@]12CCC(OC=O)CC1CC[C@@H]1[C@@H]2CC[C@]2(C)C(C34C=CC(=O)OC3O4)CC3O[C@]312 (stereo partly shown) [20S,21-epoxy-resibufogenin-3-formate]
mPAP (MCT rats; [1]): lowered mPAP
pulmonary vascular remodeling (MCT rats; [1]): attenuated adverse pulmonary vascular remodeling

CC(=O)O[C@H]1C(=O)[C@@]2(C)[C@H]([C@H](OC(=O)c3ccccc3)[C@]3(O)C[C@H](OC(=O)[C@H](O)[C@@H](NC(=O)c4ccccc4)c4ccccc4)C(C)=C1C3(C)C)[C@]1(OC(C)=O)CO[C@@H]1C[C@@H]2O [Paclitaxel, paclitaxel]
ATP production (H9c2 cardiomyocytes): reduced
coupling efficiency (H9c2 cardiomyocytes): reduced
maximal respiration (H9c2 cardiomyocytes): reduced
proton leak (H9c2 cardiomyocytes): enhanced
spare capacity (H9c2 cardiomyocytes): reduced

COc1cc2c(c(OC)c1OC)-c1ccc(OC)c(=O)cc1[C@@H](NC(C)=O)CC2 [colchicine]
JPH2 expression (MCT rats; RV, listed as Colchicine): increases JPH2 expression
t-tubule architecture (MCT rats; RV, listed as Colchicine): corrects t-tubule architecture
JPH2 expression (MCT rats; RV): increases JPH2 levels; also recorded: increases JPH2 expression
microtubule density (MCT rats; RV): reduces microtubule density
t-tubule architecture (MCT rats; RV): combats pathological t-tubule remodeling
RV function / contractility (MCT rats): augments RV function
exercise capacity (MCT rats): enhances exercise capacity
RV function / contractility (MCT rats; listed as Colchicine): improves RV function

CCCc1nn(C)c2c(=O)[nH]c(-c3cc(S(=O)(=O)N4CCN(C)CC4)ccc3OCC)nc12 [sildenafil]
JPH2 expression (MCT rats; RV): restores RV JPH2 expression
t-tubule architecture (MCT rats; RV): restores RV JPH2 expression and t-tubule architecture
RV function / contractility (MCT rats): improves RV contractility

IL6: inflammatory cytokine that binds to the cell membrane proteins IL6 receptor and GP130
JPH2 t-tubule enrichment (TT score) (adult cardiomyocytes): 59.6±1.6
MT density by quantitative immunofluorescence (adult cardiomyocytes): 20.4±0.7 fluorescence intensity/μm^2
t-tubule regularity (TT score) (adult cardiomyocytes): 51.9±1.5

tocilizumab: a monoclonal antibody that antagonizes the IL-6 receptor
PVR (IL-6 receptor): not different between the tocilizumab and control groups; also recorded: does not alter PVR
